{"source": "paper PMC4245125", "about": "“Pharmacological and Behavioral Characterization of D-473, an Orally Active Triple Reuptake Inhibitor Targeting Dopamine, Serotonin and Norepinephrine Transporters” (PLoS ONE, 2014)", "key": {"5HT1b": {"target": "T1, 5HT1b (Homo sapiens, UniProt P28222)", "T1 construct": "purchased NIMH PDSP", "T1 sequence (P28222 whole entry)": "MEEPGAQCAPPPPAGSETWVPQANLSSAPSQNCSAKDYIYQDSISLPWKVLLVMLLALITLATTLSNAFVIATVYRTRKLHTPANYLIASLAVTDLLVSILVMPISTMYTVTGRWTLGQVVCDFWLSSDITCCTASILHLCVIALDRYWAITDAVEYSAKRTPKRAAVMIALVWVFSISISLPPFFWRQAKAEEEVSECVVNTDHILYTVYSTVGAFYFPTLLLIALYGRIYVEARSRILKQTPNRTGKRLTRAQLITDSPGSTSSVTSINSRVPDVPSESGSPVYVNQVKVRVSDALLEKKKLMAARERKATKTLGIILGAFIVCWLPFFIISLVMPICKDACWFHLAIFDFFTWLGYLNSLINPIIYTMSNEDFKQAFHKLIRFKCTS", "assay": "NIMH PDSP receptor binding, 5HT1b", "conditions": "[3H]GR-125743, read-out: % Inhibition of Binding at 10 µM D-473"}, "M3": {"target": "T2, M3 (Homo sapiens, UniProt P20309)", "T2 construct": "purchased NIMH PDSP", "T2 sequence (P20309 whole entry)": "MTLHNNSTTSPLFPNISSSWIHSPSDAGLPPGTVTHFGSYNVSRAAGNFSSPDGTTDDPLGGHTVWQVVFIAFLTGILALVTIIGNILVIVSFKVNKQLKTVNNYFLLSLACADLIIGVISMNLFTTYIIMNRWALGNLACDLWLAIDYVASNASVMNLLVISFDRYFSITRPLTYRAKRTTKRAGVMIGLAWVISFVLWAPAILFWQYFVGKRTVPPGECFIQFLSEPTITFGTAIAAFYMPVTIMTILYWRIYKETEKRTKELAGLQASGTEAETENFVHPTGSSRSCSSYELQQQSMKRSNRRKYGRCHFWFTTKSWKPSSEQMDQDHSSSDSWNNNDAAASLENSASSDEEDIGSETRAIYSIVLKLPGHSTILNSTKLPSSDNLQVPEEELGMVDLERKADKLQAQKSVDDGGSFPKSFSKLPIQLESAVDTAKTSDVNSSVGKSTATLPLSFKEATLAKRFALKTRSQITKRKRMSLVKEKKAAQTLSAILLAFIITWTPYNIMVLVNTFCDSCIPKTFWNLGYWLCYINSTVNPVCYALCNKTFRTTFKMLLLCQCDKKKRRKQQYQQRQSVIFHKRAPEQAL", "assay": "biochemical", "conditions": "read-out: % Inhibition of Binding at 10 µM D-473"}, "D4": {"target": "T3, D4 (Homo sapiens, UniProt P21917)", "T3 construct": "purchased NIMH PDSP", "T3 sequence (P21917 whole entry)": "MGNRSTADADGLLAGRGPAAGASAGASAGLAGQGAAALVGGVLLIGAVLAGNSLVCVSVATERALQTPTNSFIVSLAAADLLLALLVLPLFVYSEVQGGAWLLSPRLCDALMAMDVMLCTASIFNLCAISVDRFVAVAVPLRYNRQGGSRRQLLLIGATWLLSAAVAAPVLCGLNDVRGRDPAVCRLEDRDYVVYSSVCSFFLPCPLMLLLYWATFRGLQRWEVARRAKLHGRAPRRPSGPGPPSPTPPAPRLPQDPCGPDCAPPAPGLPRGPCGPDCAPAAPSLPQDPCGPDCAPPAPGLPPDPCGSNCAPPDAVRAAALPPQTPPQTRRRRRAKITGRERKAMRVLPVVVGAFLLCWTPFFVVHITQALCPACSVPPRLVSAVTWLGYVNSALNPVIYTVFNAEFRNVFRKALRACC", "assay": "NIMH PDSP receptor binding, D4", "conditions": "[3H]N-methylspiperone, read-out: % Inhibition of Binding at 10 µM D-473"}, "5HT2c": {"target": "T4, 5HT2c (Homo sapiens, UniProt P28335)", "T4 construct": "purchased NIMH PDSP", "T4 sequence (P28335 33-458)": "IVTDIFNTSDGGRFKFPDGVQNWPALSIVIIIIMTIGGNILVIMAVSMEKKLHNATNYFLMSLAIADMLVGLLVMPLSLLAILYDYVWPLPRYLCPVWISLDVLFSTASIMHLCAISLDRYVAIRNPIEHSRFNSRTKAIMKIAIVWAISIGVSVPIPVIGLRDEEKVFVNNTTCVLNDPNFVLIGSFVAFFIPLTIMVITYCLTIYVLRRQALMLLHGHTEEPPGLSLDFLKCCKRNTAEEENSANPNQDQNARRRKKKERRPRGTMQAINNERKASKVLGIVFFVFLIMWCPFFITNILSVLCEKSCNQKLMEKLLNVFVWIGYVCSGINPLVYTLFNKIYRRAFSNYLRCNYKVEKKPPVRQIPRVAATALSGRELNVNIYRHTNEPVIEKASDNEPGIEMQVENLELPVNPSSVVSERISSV", "assay": "NIMH PDSP receptor binding, 5HT2c", "conditions": "[3H]Mesulergine, read-out: % Inhibition of Binding at 10 µM D-473"}, "Beta3": {"target": "T5, Beta3 (Homo sapiens, UniProt P13945)", "T5 construct": "NIMH PDSP", "T5 sequence (P13945 whole entry)": "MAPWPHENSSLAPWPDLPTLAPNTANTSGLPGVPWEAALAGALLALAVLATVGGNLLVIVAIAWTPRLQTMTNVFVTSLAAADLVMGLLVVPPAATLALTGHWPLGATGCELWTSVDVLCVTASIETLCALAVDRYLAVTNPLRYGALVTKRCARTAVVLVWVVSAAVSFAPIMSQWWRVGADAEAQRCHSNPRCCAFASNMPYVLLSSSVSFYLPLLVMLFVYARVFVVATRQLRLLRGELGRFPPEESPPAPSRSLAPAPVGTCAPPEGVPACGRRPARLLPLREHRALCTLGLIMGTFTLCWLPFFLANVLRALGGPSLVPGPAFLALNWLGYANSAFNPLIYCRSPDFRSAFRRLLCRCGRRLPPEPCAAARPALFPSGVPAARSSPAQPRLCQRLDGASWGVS", "assay": "NIMH PDSP receptor binding, Beta3", "conditions": "[125I]Iodopindolol"}, "D5": {"target": "D5 (Homo sapiens, UniProt P21918)", "sequence (P21918 whole entry)": "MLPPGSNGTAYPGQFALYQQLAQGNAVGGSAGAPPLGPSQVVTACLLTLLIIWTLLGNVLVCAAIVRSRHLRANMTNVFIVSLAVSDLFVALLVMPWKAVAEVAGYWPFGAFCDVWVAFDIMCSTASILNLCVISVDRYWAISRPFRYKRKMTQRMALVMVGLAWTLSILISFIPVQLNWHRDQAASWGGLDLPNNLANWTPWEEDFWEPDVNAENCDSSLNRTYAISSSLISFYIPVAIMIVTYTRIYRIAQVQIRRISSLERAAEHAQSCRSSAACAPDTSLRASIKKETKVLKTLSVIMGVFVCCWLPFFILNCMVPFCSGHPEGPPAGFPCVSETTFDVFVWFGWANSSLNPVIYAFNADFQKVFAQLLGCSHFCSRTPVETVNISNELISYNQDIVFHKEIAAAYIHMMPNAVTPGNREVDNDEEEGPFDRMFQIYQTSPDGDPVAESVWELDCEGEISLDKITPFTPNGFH", "assay": "NIMH PDSP receptor binding, D5"}, "[1]": {"assay": "Brain uptake after oral administration in rats", "type": "in vivo", "conditions": "rat, 25 mg/kg PO", "procedure": "(§1) Sample preparation: Following oral administration of 25 mg/kg of D-473 and D-142 in male Sprague Dawley rats, the blood samples were collected at different time points over a period of 8 h for analysis. Concentrations of D-473 and D-142 in plasma were quantitated using a set of calibration standards prepared in blank matrix that were processed in parallel. Plasma concentration evaluation was carried out by the CRO, Absorption System, PA. Additionally, brain uptake studies of D-473 were carried out at three different time points (2, 4 and 6 h) following oral administration of 25 mg/kg D-473. Concentrations of D-473 in rat brain were quantitated using a set of calibration standards which were prepared in blank brain homogenate matrix on the day of analysis. The standard samples (5, 10, 25, 100, 500, 1000, and 2000 ng/mL) for calibration curve were prepared by spiking 45 µL of blank rat plasma with 5 µL of appropriate working dilution of D-473 in acetonitrile. The bioanalytical sample preparation for brain and plasma analysis followed by quantification of test compounds entailed the addition of 250 µL acetonitrile to every 50 µL of standard and analyte samples to precipitate tissue plasma proteins and tissue macromolecules. These mixtures were then vortexed for 15 min at 1400 rpm. The suspensions were then clarified by centrifugation (18000 g, 10 min at 4°C), and each 150 µL of the resulting supernatant was mixed well with 50 µL 0.1% formic acid in 50/50 (v/v) ACN/water solution for about 10 sec. The mixtures were again centrifuged (18000 g, 10 min at 4°C) before 100 µL of clear supernatant were transferred to auto sampler vials for LC-MS/MS analysis.\nThe analysis of brain samples was performed using Waters (Milford, MA, USA) Acquity UPLC instrument with a triple quadrupole (TQD) MS analyzer. The LC-MS/MS detection was performed using a positive Multiple Reaction Monitoring (MRM) method by monitoring the ion transition of D-473 from m/z 440.39 → 121.03. The MS/MS conditions include capillary voltage, 2.92 kV, cone voltage, 26.0 V; source temperature, 150°C; desolvation temperature, 350°C; desolvation gas flow, 500 L/hr; and collision energy, 33 eV. The MS control and data acquisition were collected using the Waters MassLynx software v4.1. Chromatographic conditions were achieved using a reverse phase C-18 ethylene bridged hybrid column (BEH C18) (2.1×100 mm, 1.7 µM). 5 µL of sample solutions were injected and samples were eluted using 0.1% formic acid in water (solvent A) and 0.1% formic acid in ACN (solvent B) mixture with a flow rate of 0.2 mL/min. Gradient elution of the mobile phase was 90% A to 5% A from 0 to 1 min, 5% A, 95% B from 1 to 3 min, and 5% A to 90% A from 3 to 5 min."}, "[2]": {"tested_on": "CNS GPCR receptors and ion channels", "assay": "CNS broad receptors screening, summary statements by receptor family", "type": "binding"}, "Beta2": {"target": "T6, Beta2 (Homo sapiens, UniProt P07550)", "T6 construct": "purchased NIMH PDSP", "T6 sequence (P07550 whole entry)": "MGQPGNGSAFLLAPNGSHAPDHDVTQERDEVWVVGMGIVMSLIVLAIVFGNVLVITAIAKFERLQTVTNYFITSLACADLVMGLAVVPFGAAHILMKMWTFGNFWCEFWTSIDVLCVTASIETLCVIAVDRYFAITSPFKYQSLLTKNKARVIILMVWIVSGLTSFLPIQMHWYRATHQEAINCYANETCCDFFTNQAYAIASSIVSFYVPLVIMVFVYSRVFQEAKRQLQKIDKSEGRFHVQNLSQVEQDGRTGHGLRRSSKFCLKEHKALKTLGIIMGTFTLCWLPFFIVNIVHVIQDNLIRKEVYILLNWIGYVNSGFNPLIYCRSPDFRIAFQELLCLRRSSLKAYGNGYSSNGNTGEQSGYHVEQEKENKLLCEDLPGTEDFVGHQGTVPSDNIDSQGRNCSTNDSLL", "assay": "NIMH PDSP receptor binding, Beta2", "conditions": "[125I]Iodopindolol, read-out: % Inhibition of Binding at 10 µM D-473"}, "[3]": {"assay": "Plasma concentration after oral administration in rats", "type": "in vivo", "conditions": "rat, male Sprague-Dawley rats, 25 mg/kg PO", "procedure": "as §1\nThe analysis of blood sample was carried out by the CRO Absorption system, PA. Briefly, the analysis was carried out by Waters Acquity UPLC equipped with PE Sciex API4000 mass spectrometer. Reverse phase Waters Acquity BEH Phenyl Column 1.7micron, 2.1×30 mm column was used for analysis. 5 µL of sample solutions were injected with a flow rate 1 mL/min and the samples were eluted with gradient elution using solvent A (10% buffer: 90% water) and solvent B (10% buffer: 90% acetonitrile). Buffer used was 40 mM Ammonium Formate Buffer, pH 3.5. Pharmacokinetic prarameters were estimated by a non-compartmental model using WinNonlin v5.2.1 software."}, "H3": {"target": "T7, H3 (Homo sapiens, UniProt Q9Y5N1)", "T7 construct": "purchased NIMH PDSP", "T7 sequence (Q9Y5N1 whole entry)": "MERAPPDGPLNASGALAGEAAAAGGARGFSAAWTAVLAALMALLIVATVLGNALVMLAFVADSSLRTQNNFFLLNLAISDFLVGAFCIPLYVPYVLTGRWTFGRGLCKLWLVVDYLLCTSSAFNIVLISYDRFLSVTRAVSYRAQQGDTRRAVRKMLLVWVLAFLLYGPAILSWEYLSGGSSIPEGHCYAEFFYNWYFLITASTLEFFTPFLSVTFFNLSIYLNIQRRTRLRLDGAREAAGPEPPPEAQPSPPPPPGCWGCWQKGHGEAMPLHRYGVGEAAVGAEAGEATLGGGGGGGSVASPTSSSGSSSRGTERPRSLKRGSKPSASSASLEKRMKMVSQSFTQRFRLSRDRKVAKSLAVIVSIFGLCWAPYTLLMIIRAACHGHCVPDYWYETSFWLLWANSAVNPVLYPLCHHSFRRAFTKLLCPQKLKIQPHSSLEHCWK", "assay": "NIMH PDSP receptor binding, H3", "conditions": "[3H]Alpha-methyl Histamine, read-out: % Inhibition of Binding at 10 µM D-473"}}}
{"smiles": "COc1ccc(CN[C@@H]2CO[C@H](C(c3ccc(F)cc3)c3ccc(F)cc3)C[C@H]2O)cc1", "note": "[Compound D-473, (2S,4R,5R)-2-(bis(4-fluorophenyl)methyl)-5-((4-methoxybenzyl)amino)tetrahydro-2H-pyran-4-ol]", "values": [{"measurement": "inhibition at 10 µM", "setting": "5HT1b", "value": 14.2, "unit": "%"}, {"measurement": "inhibition at 10 µM", "setting": "M3", "value": 6.9, "unit": "%"}, {"measurement": "inhibition at 10 µM", "setting": "D4", "value": 37.2, "unit": "%"}, {"measurement": "inhibition at 10 µM", "setting": "5HT2c", "value": 45.4, "unit": "%"}, {"measurement": "inhibition at 10 µM", "setting": "Beta3; 10 µM, read-out: % Inhibition of Binding at 10 µM D-473", "value": 61.2, "unit": "%"}, {"measurement": "Ki", "setting": "Beta3; secondary assay, read-out: Ki for D-473", "value": "> 10", "unit": "µM"}, {"measurement": "inhibition at 10 µM", "setting": "D5; [3H]SCH 23390, 10 µM, read-out: % Inhibition of Binding at 10 µM D-473", "value": 74.7, "unit": "%"}, {"measurement": "Ki", "setting": "D5; [3H]SCH 23390, secondary assay, read-out: Ki for D-473", "value": 1.57, "unit": "µM"}, {"measurement": "Kp at 2 h", "setting": "[1]; male, Sprague-Dawley, brain and plasma, 2 h, read-out: Brain/plasma ratio", "value": 0.76}, {"measurement": "Kp at 4 h", "setting": "[1]; male, Sprague-Dawley, brain and plasma, 4 h, read-out: Brain/plasma ratio", "value": 1.54}, {"measurement": "Kp at 6 h", "setting": "[1]; male, Sprague-Dawley, brain and plasma, 6 h, read-out: Brain/plasma ratio", "value": 1.22}, {"measurement": "concentration at 2 h", "setting": "[1]; male, Sprague-Dawley, brain, 2 h", "value": 264, "unit": "ng/mL"}, {"measurement": "concentration at 4 h", "setting": "[1]; male, Sprague-Dawley, brain, 4 h, read-out: Concentration in the brain (peak)", "value": 345, "unit": "ng/mL"}, {"measurement": "Concentration in the brain", "setting": "[1]; 6 h", "value": "slightly lower than observed at 2 h"}, {"measurement": "Affinity for alpha adrenergic or beta adrenergic receptors subtypes", "setting": "[2]", "value": "did not show any appreciable affinity"}, {"measurement": "Affinity for muscarinic receptor subtypes", "setting": "[2]", "value": "Lack of any affinity"}, {"measurement": "Affinity for opioid receptors, calcium channel and GABA receptor", "setting": "[2]", "value": "did not show any affinity"}, {"measurement": "Ki", "setting": "[2]; dopamine and serotonin receptor subtypes other than D1, D5, 5HT2b, read-out: Ki at dopamine and serotonin receptor subtypes (generally)", "value": "> 10", "unit": "µM"}, {"measurement": "inhibition at 10 µM", "setting": "Beta2", "value": -4.4, "unit": "%"}, {"measurement": "Cmax", "setting": "[3]; 3% HPßCD in water, read-out: Average maximum plasma concentration, Cmax", "value": "404 ± 223", "unit": "ng/mL"}, {"measurement": "half-life", "setting": "[3]; read-out: Estimated average half-life (converted)", "value": "6.39 ± 0.106", "unit": "h"}, {"measurement": "inhibition at 10 µM", "setting": "H3", "value": -14.7, "unit": "%"}]}
